The record followed here is US9951094B2, “Phosphole compound and fluorescent dye containing the same” (NATIONAL UNIVERSITY CORPORATION NAGOYA UNIVERSITY, priority 2014, dated 2018).

What all share (format): physicochemical
Data set [1] is described as follows: Fluorescence spectra in solvents. As to the method: (§1) The optical properties of compounds 1 to 3, 6b to 6d, 7a, and 7b were evaluated. Ultraviolet-visible (UV-Vis) absorption and fluorescence spectra were measured with an UV-Vis-NIR spectrophotometer UV-3150 (Shimadzu) and a fluorescence spectrophotometer F-4500 (Hitachi), respectively. Absolute fluorescence quantum yield was determined with an absolute PL quantum yield measurement instruments C9920-02 or C11347-01 (Hamamatsu Photonics). Sample solutions of all the samples were prepared using spectral grade solvents purchased from Nacalai Tesque, and were each measured with a 1 cm square quartz cuvette. The concentrations of each sample for the measurement of UV-Vis absorption spectra were set for ca. 10^−5 M. The concentrations of each sample for the measurement of fluorescence spectra were adjusted in a range where concentration quenching would not occur. For the measurement of absolute fluorescence quantum yield, each sample solution was deaerated by purging with an argon gas stream for several minutes prior to the measurements. The orientation polarizabilities Δf of hexane, ethyl acetate, and methanol, which are not shown in the Tables, were −0.000518, 0.201, and 0.309, respectively.

A short description of data set [2]: Absolute fluorescence quantum yield in solvents. Conditions: apparatus C11347-01. How it is done:
as §1

Data set [3] is described as follows: Photobleaching resistance, 403 nm laser irradiation of acetonitrile solutions. Conditions: acetonitrile solution, 403 nm laser light, 120 minutes; FIG. 2. As to the method: Solutions of compounds 1, 2 (6a), 6b, 7a, 7b, and a known fluorescent dye Alexa-430 each in acetonitrile were prepared so that their absorbances are in the range from 0.39 to 0.44. The concentration of each compound in the solution was 2.35×10^−5 M for compound 1, 2.17×10^−5 M for compound 2 (6a), 1.25×10^−5 M for compound 6b, 3.30×10^−5 M for compound 7a, and 2.04×10^−5 M for compound 7b. […] Immediately after preparation of each acetonitrile solution, the molar absorption coefficient of the acetonitrile solution was measured. Then, the molar absorption coefficient of the acetonitrile solution was measured after each of irradiations with 403 nm laser light for 20 minutes, 60 minutes, and 120 minutes, and the relative absorbance was determined relative to the molar absorption coefficient before laser light irradiation (immediately after preparation of the solution).

A short description of data set [4]: UV-Vis absorption spectra in solvents. As to the method:
as §1

`O=P1(c2ccccc2)C2=C(c3ccccc31)C(c1ccccc1)(c1ccccc1)c1cc(N(c3ccccc3)c3ccccc3)ccc12` (centres unmarked) [Compound 7a]: the “Emission Maximum Wavelength λ em” value in data set [1] (CH3CN) stood at 590 nm; in data set [1] (EtOH), 589 nm; in data set [1] (cyclohexane) it was 482 nm; in data set [1] (ethyl acetate), 540 nm. The “Fluorescence Quantum Yield φF” value in data set [2] (CH3CN) worked out at 0.79; in data set [2] (EtOH) it was 0.70; in data set [2] (cyclohexane), 0.88; in data set [2] (ethyl acetate), 0.90. In addition, the “Resistance to photobleaching (relative absorbance)” value in data set [3] was “outstanding resistance to photobleaching”. In addition, the “Absorption Maximum Wavelength λ max” value was 428 nm in data set [4] (CH3CN), 439 nm in data set [4] (EtOH), 424 nm in data set [4] (cyclohexane) and 424 nm in data set [4] (ethyl acetate). Besides, the “Molar Absorption Coefficient ϵ” value in data set [4] (CH3CN) was 1.62 10^4M^−1 cm^−1; in data set [4] (EtOH), 1.60 10^4M^−1 cm^−1; in data set [4] (cyclohexane) it was 1.60 10^4M^−1 cm^−1; in data set [4] (ethyl acetate), 1.61 10^4M^−1 cm^−1.
